The text below walks through data of patent US9539248B2, “Agent for ameliorating chronic obstructive pulmonary disease” (LTT BIO-PHARMA CO., LTD., priority 2012, dated 2017).

In experiment [1] the test system is poor lung function induced by porcine pancreatic elastase. Briefly: Test Example 3: FEV0.05/FVC in poor lung function induced by porcine pancreatic elastase, compared with muscarinic antagonists. In kind it is in vivo, ICR mice. To be noted: 38 μg/kg by airway administration once daily for 11 days, measured on Day 14 (FIG. 10). Here is the method:
Measurement of a ratio of forced expiratory volume (FEV) in the first 0.05 seconds to forced vital capacity (FVC) (FEV0.05/FVC) was performed by using the above-mentioned computer-controlled small animal ventilator connected to a negative pressure reservoir (SCIREQ Scientific Respiratory Equipment Inc.). FEV0.05/PVC was determined by using the FlexiVent software. As with Test Example 1, 4 to 6 week old ICR mice were treated with porcine pancreatic elastase. […] On Day 14, FEV0.05/FVC was measured by the method described in the above-mentioned “Measurement of FEV0.05/FVC.”

Experiment [2] relates to porcine pancreatic elastase-induced pulmonary emphysema and altered lung function. As to the kind of experiment: Test Example 7: oral administration in porcine pancreatic elastase-induced pulmonary emphysema and altered lung function. In kind it is in vivo, ICR mice. To be noted: oral administration once daily for 14 days, different doses (mg/kg) (FIG. 18 to 20). Here is the method:
100 μg of porcine pancreatic elastase per mouse was administered to 4 to 6 week old ICR mice once via the airway. Then, different doses (mg/kg) of mepenzolate were administered to the mice orally once daily for 14 days. After administration, sections of the lung tissues were excised. Subsequently, the sections were subjected to H&E dyeing, MLI measurement, and elastance measurement performed by a similar method to that in Test Example 1.

Experiment [3] concerns pulmonary emphysema and altered lung function resulting from smoking. Briefly: Test Example 6: pulmonary emphysema and altered lung function resulting from smoking. In kind it is in vivo, DBA/2 mice. The note with it: cigarette smoke 6 weeks. Here is the method: Three-times-a-day exposure to smoking and once-a-day coadministration of 38 μg/kg of mepenzolate were performed on 5 week old DBA/2 mice, 5 days a week (Monday to Friday) for 6 weeks. The mice were subjected to only smoking during the final week. The mice were subjected to smoking by the method described below. 15 to 20 mice were placed in a 45 L chamber and the chamber was connected to a cigarette smoke generator. Commercially available unfiltered cigarette that produced 28 mg of tar and 2.3 mg of nicotine were used. The mice were exposed to smoke of one cigarette over 35 minutes, which was repeated three times a day for five days a week. This was continued for 6 weeks. The mice were made to inhale the cigarette smoke 15 times over a 5-minute period. Mepenzolate was administered to the mice by inhalation. After smoking was completed, the mice were euthanized, sections of the lung tissues were prepared and dyed with H&E, and stained images were obtained by electron microscopy. The airspace size in the cells in the H&E stained images obtained above was measured as a mean linear intercept. Then, the total respiratory system elastance and the tissue elastance were measured by a similar method to that in Test Example 1.

Experiment [4] relates to porcine pancreatic elastase pretreatment-induced pulmonary emphysema and altered lung function. Briefly: Test Example 2: porcine pancreatic elastase pretreatment-induced pulmonary emphysema and altered lung function. In kind it is in vivo, ICR mice. Here is the method: 100 μg of porcine pancreatic elastase per mouse and different doses of mepenzolate were dissolved in 30 μL of phosphate buffered saline (PBS) per mouse and this solution was injected into the airway of a mouse anesthetized with chloral hydrate by a micropipette.
(§1) Lung function and airway resistance were measured by using a computer-controlled small animal ventilator (FlexiVent, SCIREQ Scientific Respiratory Equipment Inc.).
A mouse was anesthetized with chloral hydrate, a tracheostomy was performed, and an 8 mm metal tube was inserted into the trachea. Ventilation was performed on the mouse with a volume of 8.7 mL/kg, a positive end-expiratory pressure of 2 to 3 cmH2O, and a respiratory rate of 150 times/min.
Total respiratory system elastance was measured by a snap shot technique and tissue elastance was measured by a forced oscillation technique.
After 4 to 6 week old ICR mice were used and treated with porcine pancreatic elastase by a similar method to that in Test Example 1, different doses (μg/kg) of mepenzolate were administered to these mice via the airway once daily from 14 days to 20 days after the treatment. Then, the mice were euthanized, sections of the lung tissues were prepared and dyed with H&E, and stained images were obtained by electron microscopy.
Subsequently, the airspace size in the cells in the obtained H&E stained images was measured as a mean linear intercept.
Then, on Day 21, the total respiratory system elastance and the tissue elastance were measured by a similar method to that in Test Example 1.

The subject of experiment [5] is methacholine-induced airway constriction. As to the kind of experiment: Test Example 4: methacholine-induced airway constriction, airway administration. In kind it is in vivo, ICR mice. Here is the method:
as §1
Increase in airway resistance induced by methacoline was measured. 4 to 6 week old ICR mice received 1 mg/mL methacoline by nebulization over 20 seconds and this was repeated five times. After administration of methacoline was completed, the airway resistance was measured by a snap shot technique. All the data were analyzed by using FlexiVent software.
Different doses (μg/kg) of mepenzolate were administered to the mice via the airway, and one hour after administration, the mice received five exposures to nebulized methacoline, and then, the airway resistance for each dose was measured.
Furthermore, mepenzolate was administered to the mice at a dose of 38 μg/kg. Then, the mice received five exposures to nebulized methacoline at 6 hours, 24 hours, and 48 hours after drug administration. The airway resistance for each time length was measured.

The subject of experiment [6] is porcine pancreatic elastase-induced COPD model. As to the kind of experiment: Test Example 8: rectal administration in porcine pancreatic elastase-induced COPD model, lung damage (H&E, MLI, elastance, FEV0.05/FVC). In kind it is in vivo, ICR mice. To be noted: intrarectal once daily for 14 days, different doses (mg/kg) (FIG. 22 to 24). Here is the method: 100 μg of porcine pancreatic elastase per mouse was administered to 4 to 6 week old ICR mice once via the airway to induce damage in the lung. Furthermore, different doses (mg/kg) of mepenzolate were administered to the mice intrarectally once daily for 14 days. After administration, sections of the lung tissues were excised. Subsequently, the sections were subjected to H&E dyeing, MLI measurement, and elastance measurement performed by a similar method to that in Test Example 1.

For experiment [7], the system named is porcine pancreatic elastase-induced pulmonary emphysema and altered lung function. Briefly: Test Example 1: porcine pancreatic elastase-induced pulmonary emphysema and altered lung function, mepenzolate via the airway or by inhalation. In kind it is in vivo, ICR mice. To be noted: for damage in the alveolar wall: H&E sections; for mean linear intercept (MLI): PPE 100 μg per mouse. Here is the method: 100 μg of porcine pancreatic elastase per mouse and different doses of mepenzolate were dissolved in 30 μL of phosphate buffered saline (PBS) per mouse and this solution was injected into the airway of a mouse anesthetized with chloral hydrate by a micropipette. A mouse was placed in a chamber. Then, the whole amount of a mepenzolate solution prepared by dissolving mepenzolate in 10 mL of PBS was sprayed onto the mouse over 30 minutes by using an ultrasonic nebulizer (NE-U07, manufactured by OMRON Corporation) that was connected to the chamber. Lung function and airway resistance were measured by using a computer-controlled small animal ventilator (FlexiVent, SCIREQ Scientific Respiratory Equipment Inc.). A mouse was anesthetized with chloral hydrate, a tracheostomy was performed, and an 8 mm metal tube was inserted into the trachea. Ventilation was performed on the mouse with a volume of 8.7 mL/kg, a positive end-expiratory pressure of 2 to 3 cmH2O, and a respiratory rate of 150 times/min. Total respiratory system elastance was measured by a snap shot technique and tissue elastance was measured by a forced oscillation technique. Data analysis was conducted by using FlexiVent software. A lung damage model for pulmonary emphysema and altered lung function was generated by administering 100 μg of porcine pancreatic elastase per mouse to 4 to 6 week old ICR mice once via the airway. Different doses of mepenzolate were administered to these mice via the airway (μg/kg) or by inhalation (μg/chamber) once daily for 14 days (Day 0 to Day 13) and the mice were euthanized on Day 14. Sections of the lung tissues were prepared and dyed with H&E (hematoxylin-eosin staining), and stained images were obtained by electron microscopy. The airspace size in the cells in the H&E stained images obtained above was measured as a mean linear intercept (MLI; μm). Then, on Day 14, the total respiratory system elastance and the tissue elastance were measured by the method described in the above-mentioned “Measurement of Elastance.”

Experiment [8] has as its system methacoline-induced airway constriction. As to the kind of experiment: Test Example 9: rectal administration in methacoline-induced airway constriction. In kind it is in vivo, mice. To be noted: different doses (mg/kg) (FIG. 25). Here is the method: Increase in airway resistance induced by methacoline was measured. 4 to 6 week old ICR mice received 1 mg/mL methacoline by nebulization over 20 seconds and this was repeated five times. After administration of methacoline was completed, the airway resistance was measured by a snap shot technique. All the data were analyzed by using FlexiVent software. Different doses (mg/kg) of mepenzolate were administered intrarectally and airway resistance induced by methacoline was measured by a similar method to that in Test Example 4.

In experiment [9] the test system is porcine pancreatic elastase-induced COPD model. As to the kind of experiment: Test Example 8: rectal administration in porcine pancreatic elastase-induced COPD model, inflammatory cells in alveolar lavage fluid. In kind it is in vivo, ICR mice. The note with it: intrarectal once daily, lavage fluid collected 3 days later (FIG. 21). Here is the method:
100 μg of porcine pancreatic elastase per mouse was administered to 4 to 6 week old ICR mice once via the airway to induce damage in the lung. Different concentrations of mepenzolate were administered intrarectally once daily. The alveolar lavage fluid was collected 3 days later and the total cell count was counted. The neutrophil count was also counted by dyeing the cells by a Diff-Quick technique.

Experiment [10] concerns porcine pancreatic elastase-induced inflammation. As to the kind of experiment: Test Example 5: porcine pancreatic elastase-induced inflammation (BALF cell counts and cytokines). In kind it is in vivo, ICR mice. Here is the method:
Different doses of mepenzolate were administered to 4 to 6 week old ICR mice once via the airway. 100 μg of porcine pancreatic elastase per mouse was administered one hour after administration of mepenzolate. Bronchoalveolar lavage fluid (BALF) was collected from the lung 24 hours after administration of porcine pancreatic elastase and a total cell count and a neutrophil count were measured. Furthermore, the total number of TNF-α, MIP-2, MCP-1, or KC in the bronchoalveolar lavage fluid when 38 μg/kg of mepenzolate was administered via the airway was measured by an ELISA method.

Where [11] appears, read: 38 μg/kg once a day by inhalation (FIG. 17).
[12] abbreviates: airway administration, Day 21 (FIG. 9).
Setting [13] is: airway administration, Day 14 (FIG. 3).
[14] abbreviates: inhalation administration, Day 14 (FIG. 6).
The mark [15] stands for this setting: 38 μg/kg via the airway, ELISA (FIG. 14).
The mark [16] stands for this setting: different doses once via the airway 1 h before PPE, BALF 24 hours after PPE (FIG. 13).

On to `CN1CCN(CC(=O)N2c3ccccc3C(=O)Nc3cccnc32)CC1` [pirenzepine], for which, in [1], the “recovering effect of vital capacity represented by FEV0.05/FVC reduced by PPE administration” value was “did not show a significant recovering effect”.
On to `C[N+]1(C)CCC[C@@H](OC(=O)C(O)(c2ccccc2)c2ccccc2)C1` (racemic) [mepenzolate, mepenzolate bromide], for which, in experiment [2], the “damage in the lung (H&E, MLI, elastance)” value is reported as “improved damage in the lung”. Further, the “damage in the alveolar wall” value in experiment [3] (38 μg/kg once a day by inhalation) is “improved”; in experiment [4] (airway administration once daily from 14 to 20 days after PPE treatment) it was “improved dose-dependently”; in experiment [7] (airway administration once daily for 14 days), “improved”; in experiment [7] (inhalation administration once daily for 14 days), “improved”. Moreover, the mean linear intercept entry in experiment [3] (38 μg/kg once a day by inhalation (FIG. 15, 16)) was “suppressed”; in [4] (airway administration once daily from 14 to 20 days after PPE treatment (FIG. 7, 8)), “suppressed”. In addition, the tissue elastance entry in [3] (setting [11]), in experiment [4] (setting [12]), in experiment [7] (setting [13]) and in [7] (setting [14]) was “significantly improved” throughout. The “total respiratory system elastance” value in experiment [3] (setting [11]), in [4] (setting [12]), in experiment [7] (setting [13]) and in experiment [7] (setting [14]) was “significantly improved” in each case. Further, the “recovering effect of vital capacity represented by FEV0.05/FVC reduced by PPE administration” value in experiment [1] is reported as “effectively exhibited a recovering effect”. Also, the “airway resistance induced by methacoline, duration of effect” value in [5] (38 μg/kg, methacoline at 6, 24 and 48 hours after administration (FIG. 12)) is “reduced the airway resistance even 24 hours after administration”. For the same compound, the “airway resistance induced by methacoline” value in [5] (airway administration at 0.04, 0.08, 0.38, 3.8 and 38.0 μg/kg, one hour after administration (FIG. 11)) is “reduced the airway resistance almost dose-dependently”; in experiment [8], “showed an excellent effect”. Moreover, in experiment [6], the “damage in the lung induced by elastase (H&E, MLI, elastance, FEV0.05/FVC)” value is listed as “improved damage in the lung induced by elastase”. In addition, the “mean linear intercept (MLI)” value in [7] (airway administration once daily for 14 days, Day 14 (FIG. 1, 2)) was “suppressed”; in experiment [7] (inhalation administration once daily for 14 days, Day 14 (FIG. 4, 5)), “suppressed”. For the same compound, the “suppressive effect on mean linear intercept, inhalation compared with airway administration” value in experiment [7] (inhalation vs airway administration) is “inhalation administration had a slightly better suppressive effect”. For the same compound, the “inflammatory cells (total cell count, neutrophil count) in alveolar lavage fluid” value in experiment [9] is given as “decrease in the inflammatory cells was observed”. For the same compound, the “KC in the BALF” value in experiment [10] (setting [15]) is recorded as “decreased”. Also, in [10] (setting [15]), the “MCP-1 in the BALF” value was “decreased”. Moreover, the “MIP-2 in the BALF” value in experiment [10] (setting [15]) is “decreased”. In addition, the “TNF-α in the BALF” value in [10] (setting [15]) was “decreased”. Also, the “neutrophil count of the BALF” value in [10] (setting [16]) is “decreased dependently on the dose”. Also, the “total cell count of the BALF” value in experiment [10] (setting [16]) is “decreased dependently on the dose”.
